Results from the supplement of paper PMC5908809.

Columns and labels:
NK-92 (IL-2 2.5 ng/mL) [1] = assay: drug sensitivity score (DSS) (DSS units); higher = more sensitive; extreme values may be limits of the assay; details: 72 h
[2] = test system: normal primary NK cells, pool 1 (3 donors) (IL-2 2.5 ng/mL); assay: as above; details: 72 h
[3] = test system: normal primary NK cells, pool 3 (3 donors) (IL-2 2.5 ng/mL); assay: as above; details: 72 h
IMC-1 (IL-2 20 ng/mL) [4] = assay: as above; details: 72 h
[5] = test system: normal primary NK cells, pool 2 (3 donors) (IL-2 2.5 ng/mL); assay: as above; details: 72 h
NKL (IL-2 2.5 ng/mL) [6] = assay: as above; details: 72 h
KAI3 (IL-2 2.5 ng/mL) [7] = assay: as above; details: 72 h
[8] = test system: normal primary NK cells, pool 1 (3 donors), resting (IL-2 0 ng/mL); assay: as above; details: 72 h
SNK-6 (IL-2 2.5 ng/mL) [9] = assay: as above; details: 72 h
DERL-7 (IL-2 2.5 ng/mL) [10] = assay: as above; details: 72 h
YT (IL-2 2.5 ng/mL) [11] = assay: as above; details: 72 h
NK-YS (IL-2 2.5 ng/mL) [12] = assay: as above; details: 72 h
KHYG-1 (IL-2 2.5 ng/mL) [13] = assay: as above; details: 72 h
NK-92 (IL-2 2.5 ng/mL) [14] = assay: percent inhibition of viability; higher = more inhibition; details: 72 h
[15] = test system: normal primary NK cells, pool 1 (3 donors) (IL-2 2.5 ng/mL); assay: as above; details: 72 h
[16] = test system: normal primary NK cells, pool 3 (3 donors) (IL-2 2.5 ng/mL); assay: as above; details: 72 h
IMC-1 (IL-2 20 ng/mL) [17] = assay: as above; details: 72 h
[18] = test system: normal primary NK cells, pool 2 (3 donors) (IL-2 2.5 ng/mL); assay: as above; details: 72 h
NKL (IL-2 2.5 ng/mL) [19] = assay: as above; details: 72 h
KAI3 (IL-2 2.5 ng/mL) [20] = assay: as above; details: 72 h
[21] = test system: normal primary NK cells, pool 1 (3 donors), resting (IL-2 0 ng/mL); assay: as above; details: 72 h
SNK-6 (IL-2 2.5 ng/mL) [22] = assay: as above; details: 72 h
DERL-7 (IL-2 2.5 ng/mL) [23] = assay: as above; details: 72 h
YT (IL-2 2.5 ng/mL) [24] = assay: as above; details: 72 h
NK-YS (IL-2 2.5 ng/mL) [25] = assay: as above; details: 72 h
KHYG-1 (IL-2 2.5 ng/mL) [26] = assay: as above; details: 72 h
[27] = test system: normal NK cells expanded with K562-aAPC; assay: as above; details: 72 h, IL-2 2.5 ng/mL
Experimental: (§1)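 Drug sensitivity and resistance testing on K562-aAPC-expanded normal NK cells: 5 concentrations (10-fold steps over a 10,000-fold range), 72 h at 37 °C, viability by CellTiter-Glo normalised to DMSO and benzethonium chloride controls; DSS from the fitted curve.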

[28] = test system: normal NK cells expanded with K562-aAPC; assay: drug sensitivity score (DSS) (DSS units); higher = more sensitive; extreme values may be limits of the assay; details: 72 h; IL-2 2.5 ng/mL
Experimental: as §1

O=c1cc(N2CCOCC2)oc2c(-c3ccccc3)cccc12 (max concentration tested 100000 nM)
Details | drug sensitivity score
DERL-7 (IL-2 2.5 ng/mL) [10] | 13.6
IMC-1 (IL-2 20 ng/mL) [4] | 4.34
KAI3 (IL-2 2.5 ng/mL) [7] | 6.11
KHYG-1 (IL-2 2.5 ng/mL) [13] | 8.95
NK-92 (IL-2 2.5 ng/mL) [1] | 6.84
NK-YS (IL-2 2.5 ng/mL) [12] | 10.1
NKL (IL-2 2.5 ng/mL) [6] | 10.7
SNK-6 (IL-2 2.5 ng/mL) [9] | 13.6
YT (IL-2 2.5 ng/mL) [11] | 8.24
[2] | 9.7
[3] | 8.63
[5] | 10.1
[8] | 12.2
[28] | 9.96

percent inhibition of viability [%]
Details | 10 nM | 100 nM | 1000 nM | 10000 nM | 100000 nM
DERL-7 (IL-2 2.5 ng/mL) [23] | 0.77 | -1.71 | 9.97 | 64.1 | 97.4
IMC-1 (IL-2 20 ng/mL) [17] | -0.85 | -3.31 | -2.01 | -5.98 | 86.2
KAI3 (IL-2 2.5 ng/mL) [20] | -1.02 | -1.63 | 6.02 | 25.9 | 59.6
KHYG-1 (IL-2 2.5 ng/mL) [26] | -1.25 | -1.33 | 4.59 | 30.1 | 89.5
NK-92 (IL-2 2.5 ng/mL) [14] | -5.7 | -3.95 | -4.94 | 24 | 64.1
NK-YS (IL-2 2.5 ng/mL) [25] | -4.69 | -3.69 | 1.75 | 45.5 | 83.3
NKL (IL-2 2.5 ng/mL) [19] | -14.3 | -15.8 | 3.05 | 55.1 | 69.6
SNK-6 (IL-2 2.5 ng/mL) [22] | 3.19 | 3.24 | 18.5 | 59.4 | 92.6
YT (IL-2 2.5 ng/mL) [24] | 1.36 | 2.44 | 6.09 | 37.3 | 68.7
[15] | -1.05 | 3.02 | 7.28 | 35.5 | 97.6
[16] | -5.94 | -9.6 | -2.64 | 20.7 | 96.5
[18] | -8.94 | -2.33 | 8.53 | 41.1 | 95.9
[21] | -0.68 | 6.88 | 14.6 | 52.6 | 92.9
[27] | -2.73 | -3.41 | 4.76 | 39.4 | 94.5
